Values quoted from earlier work in patent publication US20260042735A1, “BENZYLTRYPTAMINE COMPOUNDS” (priority 2021, published 2026).

How the values were obtained:
[1] = biological target: SERT (Homo sapiens (Human), UniProt P31645); details: cited from earlier work
[2] = biological target: 5-HT1B (Homo sapiens (Human), UniProt P28222); details: cited from earlier work
[3] = biological target: 5-HT1D (Homo sapiens (Human), UniProt P28221); details: cited from earlier work
[4] = biological target: 5-HT3 (Homo sapiens (Human), UniProt P46098); details: read-out: Ki 5-HT3; cited from earlier work
5-HT3, sequence (P46098 whole entry, looked up, species assumed): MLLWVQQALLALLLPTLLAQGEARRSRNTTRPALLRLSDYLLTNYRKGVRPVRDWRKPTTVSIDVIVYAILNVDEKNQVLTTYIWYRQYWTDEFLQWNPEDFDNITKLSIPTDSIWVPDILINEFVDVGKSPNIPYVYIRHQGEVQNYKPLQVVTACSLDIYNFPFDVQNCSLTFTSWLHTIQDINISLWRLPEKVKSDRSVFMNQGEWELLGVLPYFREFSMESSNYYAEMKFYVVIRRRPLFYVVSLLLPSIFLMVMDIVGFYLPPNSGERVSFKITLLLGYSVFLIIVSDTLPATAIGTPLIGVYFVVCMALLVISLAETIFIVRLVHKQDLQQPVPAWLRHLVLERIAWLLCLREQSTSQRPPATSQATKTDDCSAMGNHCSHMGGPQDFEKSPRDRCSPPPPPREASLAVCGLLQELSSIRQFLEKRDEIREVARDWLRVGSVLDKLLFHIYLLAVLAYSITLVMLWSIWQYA

[5] = biological target: 5-HT5 (Homo sapiens (Human), UniProt P47898); details: cited from earlier work
5-HT5, sequence (P47898 whole entry, looked up, species assumed): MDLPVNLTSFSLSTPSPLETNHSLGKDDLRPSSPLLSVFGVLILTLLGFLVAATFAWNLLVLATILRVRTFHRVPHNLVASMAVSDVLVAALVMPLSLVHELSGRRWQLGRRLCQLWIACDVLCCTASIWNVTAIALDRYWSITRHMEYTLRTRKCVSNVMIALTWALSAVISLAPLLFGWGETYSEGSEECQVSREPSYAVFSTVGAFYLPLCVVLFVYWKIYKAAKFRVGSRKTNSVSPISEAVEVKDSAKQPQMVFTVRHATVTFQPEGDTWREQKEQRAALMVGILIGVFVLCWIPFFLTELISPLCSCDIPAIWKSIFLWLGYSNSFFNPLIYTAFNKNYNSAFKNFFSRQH

[6] = biological target: 5-HT6 (Homo sapiens (Human), UniProt P50406); details: cited from earlier work
5-HT6, sequence (P50406 whole entry, looked up, species assumed): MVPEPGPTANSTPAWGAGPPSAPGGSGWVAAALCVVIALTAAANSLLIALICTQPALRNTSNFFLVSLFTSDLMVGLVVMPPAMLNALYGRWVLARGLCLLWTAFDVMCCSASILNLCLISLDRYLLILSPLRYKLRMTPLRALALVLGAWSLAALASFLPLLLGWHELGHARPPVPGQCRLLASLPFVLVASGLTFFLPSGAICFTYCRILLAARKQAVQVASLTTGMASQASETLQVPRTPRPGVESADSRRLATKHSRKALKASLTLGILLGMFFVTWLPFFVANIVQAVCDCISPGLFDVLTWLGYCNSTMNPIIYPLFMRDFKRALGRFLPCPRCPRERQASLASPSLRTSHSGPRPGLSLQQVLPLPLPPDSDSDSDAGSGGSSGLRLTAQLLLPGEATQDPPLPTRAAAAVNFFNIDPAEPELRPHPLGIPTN

[7] = biological target: 5-HT7 (Homo sapiens (Human), UniProt P34969); details: cited from earlier work
5-HT7, sequence (P34969 whole entry, looked up, species assumed): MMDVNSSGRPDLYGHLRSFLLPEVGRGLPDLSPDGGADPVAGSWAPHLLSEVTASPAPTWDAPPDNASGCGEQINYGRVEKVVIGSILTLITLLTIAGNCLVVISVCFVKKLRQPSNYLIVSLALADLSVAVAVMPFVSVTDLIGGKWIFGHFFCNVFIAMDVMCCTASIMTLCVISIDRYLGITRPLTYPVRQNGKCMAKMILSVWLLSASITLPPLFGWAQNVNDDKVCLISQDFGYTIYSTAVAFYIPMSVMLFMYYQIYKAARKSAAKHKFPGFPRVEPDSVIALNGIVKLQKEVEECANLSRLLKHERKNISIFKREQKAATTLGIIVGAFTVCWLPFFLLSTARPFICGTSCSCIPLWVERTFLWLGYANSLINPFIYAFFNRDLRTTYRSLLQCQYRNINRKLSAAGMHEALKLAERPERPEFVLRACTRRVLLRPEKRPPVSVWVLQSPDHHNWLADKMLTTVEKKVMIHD

[8] = tested on: dopamine receptors; details: cited from earlier work
[9] = biological target: human 5-HT2A receptor (Homo sapiens (Human), UniProt P28223); details: cited from earlier work
[10] = biological target: T1, 5HT2B receptor (Homo sapiens, UniProt P41595); details: cited from earlier work
T1 sequence (P41595 whole entry, looked up): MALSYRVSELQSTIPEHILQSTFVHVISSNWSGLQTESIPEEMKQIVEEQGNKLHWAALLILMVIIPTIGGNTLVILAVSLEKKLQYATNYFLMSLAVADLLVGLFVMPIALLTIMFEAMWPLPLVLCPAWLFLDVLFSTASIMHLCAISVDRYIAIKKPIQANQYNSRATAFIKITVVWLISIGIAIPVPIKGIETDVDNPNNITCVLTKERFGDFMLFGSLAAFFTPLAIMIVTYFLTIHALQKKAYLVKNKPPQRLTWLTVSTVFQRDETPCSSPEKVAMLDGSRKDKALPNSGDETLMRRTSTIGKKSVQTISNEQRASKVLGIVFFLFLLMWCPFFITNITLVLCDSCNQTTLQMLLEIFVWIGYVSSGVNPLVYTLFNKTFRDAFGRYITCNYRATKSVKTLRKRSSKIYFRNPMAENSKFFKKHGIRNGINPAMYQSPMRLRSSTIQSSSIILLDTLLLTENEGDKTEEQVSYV

[11] = biological target: 5HT2C receptor (Homo sapiens, UniProt P28335); details: cited from earlier work
5HT2C receptor, sequence (P28335 33-458 limits assumed): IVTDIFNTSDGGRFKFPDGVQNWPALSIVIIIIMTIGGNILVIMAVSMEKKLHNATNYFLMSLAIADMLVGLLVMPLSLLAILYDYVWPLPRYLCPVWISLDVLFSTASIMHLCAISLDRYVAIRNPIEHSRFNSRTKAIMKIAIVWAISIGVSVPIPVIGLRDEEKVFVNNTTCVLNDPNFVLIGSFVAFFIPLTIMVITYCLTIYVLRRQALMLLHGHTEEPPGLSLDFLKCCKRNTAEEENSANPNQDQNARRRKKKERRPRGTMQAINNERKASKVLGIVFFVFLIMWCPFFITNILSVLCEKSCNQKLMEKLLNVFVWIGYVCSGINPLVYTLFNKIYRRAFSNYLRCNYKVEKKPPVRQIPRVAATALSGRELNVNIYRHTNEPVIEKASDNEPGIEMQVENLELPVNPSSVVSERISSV

[12] = biological target: T1, 5HT2B receptor; details: cited from earlier work; remark: listed apart in the source
[13] = tested on: mouse OCD model; details: cited from earlier work
[14] = tested on: mouse head twitch; details: much lower potency relative to psilocin; cited from earlier work

5-HT1B, sequence (P28222 whole entry, looked up, species assumed): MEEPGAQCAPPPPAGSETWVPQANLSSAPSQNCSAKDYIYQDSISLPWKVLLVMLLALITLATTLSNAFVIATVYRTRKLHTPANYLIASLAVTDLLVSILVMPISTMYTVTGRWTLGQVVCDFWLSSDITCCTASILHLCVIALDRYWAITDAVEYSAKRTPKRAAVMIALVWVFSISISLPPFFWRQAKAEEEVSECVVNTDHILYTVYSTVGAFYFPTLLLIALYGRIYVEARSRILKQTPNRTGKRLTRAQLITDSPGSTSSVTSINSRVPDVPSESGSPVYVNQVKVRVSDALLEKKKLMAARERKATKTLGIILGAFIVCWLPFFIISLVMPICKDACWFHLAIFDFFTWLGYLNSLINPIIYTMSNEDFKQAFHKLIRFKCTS
5-HT1D, sequence (P28221 whole entry, looked up, species assumed): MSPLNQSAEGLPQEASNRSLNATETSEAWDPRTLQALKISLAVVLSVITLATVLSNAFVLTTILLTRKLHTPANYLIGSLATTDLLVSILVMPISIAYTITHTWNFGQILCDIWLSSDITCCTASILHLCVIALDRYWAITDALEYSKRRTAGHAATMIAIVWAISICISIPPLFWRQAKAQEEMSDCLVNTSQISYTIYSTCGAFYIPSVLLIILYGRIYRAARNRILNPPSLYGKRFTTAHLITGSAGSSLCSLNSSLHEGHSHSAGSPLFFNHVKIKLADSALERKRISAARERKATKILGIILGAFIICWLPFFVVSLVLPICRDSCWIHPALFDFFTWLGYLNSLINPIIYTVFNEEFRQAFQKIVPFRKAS

Row | SMILES | Ki [1] [nM] | Ki [2] [nM] | Ki [3] [nM] | Ki [4] [nM] | Ki [5] [nM] | Ki [6] [nM] | Ki [7] [nM] | Effect on dopamine receptors [8] | Functional efficacy response vs serotonin, 5-HT2A [9] | EC50 ([9]; phosphoinositol hydrolysis, read-out: Agonist potency at human 5-HT2A receptor) [nM] | Agonist activity at 5-HT2B receptors [10] | EC50 ([11]; phosphoinositol hydrolysis, read-out: Agonist potency at human 5-HT2C receptor) [nM] | Functional efficacy response vs serotonin, 5-HT2C ([11]; serotonin set at 100%) | Antagonist potency at 5-HT2B receptors [12] [nM] | Efficacy in mouse OCD model [13] | Efficacy in mouse head twitch assay [14]
1 | CN(C)CCc1c[nH]c2cccc(O)c12 [Psilocin, psilocin] | 3800 | 219 | 36 | > 10000 | 84 | 57 | 3.5 | no significant effect |  |  |  |  |  |  |  | 
2 | CN(C)CCc1cn(C)c2cccc(O)c12 [compound 1] |  |  |  |  |  |  |  |  | ca. 30% | 633 | inactive | 12 | ca. 45% | 38 | efficacy in a mouse OCD model demonstrated | efficacious
